pIC50: −log10 of the molar value.
Tested on: OVCAR-8 complex spheroid, growth inhibition
Assay: Anticancer human tumor OVCAR-8 cell line growth inhibition [Asc];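 also: spheroids exposed to agents for 7 days before readout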;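 as to viability, T/C: percent viability relative to DMSO vehicle wells taken as 100%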
Conditions: for pIC50: curve of first compound; for viability, T/C: stronger effect = lower value
Procedure, shortened: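 Concentration series start at each agent's clinical Cmax, or at 10 microM when none is established, and drop in half-log steps; agents are applied alone or together to complex spheroids built with HUVEC and hMSC.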

[1] = second compound 0.00316 µM, first compound 0.00316 µM
[2] = second compound 0.00316 µM, first compound 0.01 µM
[3] = second compound 0.00316 µM, first compound 0.0316 µM
[4] = second compound 0.00316 µM, first compound 0.1 µM
[5] = second compound 0.00316 µM, first compound 0.316 µM
[6] = second compound 0.00316 µM, first compound 1 µM
[7] = second compound 0.01 µM, first compound 0.00316 µM
[8] = second compound 0.01 µM, first compound 0.01 µM
[9] = second compound 0.01 µM, first compound 0.0316 µM
[10] = second compound 0.01 µM, first compound 0.1 µM
[11] = second compound 0.01 µM, first compound 0.316 µM
[12] = second compound 0.01 µM, first compound 1 µM
[13] = second compound 0.0316 µM, first compound 0.00316 µM
[14] = second compound 0.0316 µM, first compound 0.01 µM
[15] = second compound 0.0316 µM, first compound 0.0316 µM
[16] = second compound 0.0316 µM, first compound 0.1 µM
[17] = second compound 0.0316 µM, first compound 0.316 µM
[18] = second compound 0.0316 µM, first compound 1 µM
[19] = second compound 0.1 µM, first compound 0.00316 µM
[20] = second compound 0.1 µM, first compound 0.01 µM
[21] = second compound 0.1 µM, first compound 0.0316 µM
[22] = second compound 0.1 µM, first compound 0.1 µM
[23] = second compound 0.1 µM, first compound 0.316 µM
[24] = second compound 0.1 µM, first compound 1 µM
[25] = second compound 0.316 µM, first compound 0.00316 µM
[26] = second compound 0.316 µM, first compound 0.01 µM
[27] = second compound 0.316 µM, first compound 0.0316 µM
[28] = second compound 0.316 µM, first compound 0.1 µM
[29] = second compound 0.316 µM, first compound 0.316 µM
[30] = second compound 0.316 µM, first compound 1 µM
[31] = second compound 1 µM, first compound 0.00316 µM
[32] = second compound 1 µM, first compound 0.01 µM
[33] = second compound 1 µM, first compound 0.0316 µM
[34] = second compound 1 µM, first compound 0.1 µM
[35] = second compound 1 µM, first compound 0.316 µM
[36] = second compound 1 µM, first compound 1 µM

CCN1CCN(Cc2ccc(Nc3ncc(F)c(-c4cc(F)c5nc(C)n(C(C)C)c5c4)n3)nc2)CC1 + CNC(C)C(=O)NC1CN(S(=O)(=O)c2cccc(S(=O)(=O)N3CCC4CCC(C(=O)NC(c5ccccc5)c5ccccc5)N4C(=O)C(NC(=O)C(C)NC)C3)c2)CCC2CCC(C(=O)NC(c3ccccc3)c3ccccc3)N2C1=O
pIC50 (second compound 0.00316 µM): < 6.00
pIC50 (second compound 0.01 µM): < 6.00
pIC50 (second compound 0.0316 µM): < 6.00
pIC50 (second compound 0.1 µM): < 6.00
pIC50 (second compound 0.316 µM): < 6.00
pIC50 (second compound 1 µM): < 6.00
viability, T/C [1]: 102%
viability, T/C [2]: 95.7%
viability, T/C [3]: 96%
viability, T/C [4]: 85.9%
viability, T/C [5]: 111%
viability, T/C [6]: 114%
viability, T/C [7]: 91.3%
viability, T/C [8]: 86.7%
viability, T/C [9]: 85%
viability, T/C [10]: 85.3%
viability, T/C [11]: 99.9%
viability, T/C [12]: 148%
viability, T/C [13]: 90.6%
viability, T/C [14]: 88.5%
viability, T/C [15]: 84.7%
viability, T/C [16]: 81.2%
viability, T/C [17]: 91.2%
viability, T/C [18]: 116%
viability, T/C [19]: 84%
viability, T/C [20]: 78%
viability, T/C [21]: 83.9%
viability, T/C [22]: 92.5%
viability, T/C [23]: 96.7%
viability, T/C [24]: 111%
viability, T/C [25]: 75.6%
viability, T/C [26]: 72%
viability, T/C [27]: 82.5%
viability, T/C [28]: 74.7%
viability, T/C [29]: 102%
viability, T/C [30]: 111%
viability, T/C [31]: 79.8%
viability, T/C [32]: 72.3%
viability, T/C [33]: 88.1%
viability, T/C [34]: 82.6%
viability, T/C [35]: 91.8%
viability, T/C [36]: 104%

NC(=O)C(=Cn1cnc(-c2cc(C(F)(F)F)cc(C(F)(F)F)c2)n1)c1cncnc1 + CNC(C)C(=O)NC1CN(S(=O)(=O)c2cccc(S(=O)(=O)N3CCC4CCC(C(=O)NC(c5ccccc5)c5ccccc5)N4C(=O)C(NC(=O)C(C)NC)C3)c2)CCC2CCC(C(=O)NC(c3ccccc3)c3ccccc3)N2C1=O
pIC50 (second compound 0.00316 µM): 6.58
pIC50 (second compound 0.01 µM): < 6.52
pIC50 (second compound 0.0316 µM): < 6.52
pIC50 (second compound 0.1 µM): 6.92
pIC50 (second compound 0.316 µM): 7.14
pIC50 (second compound 1 µM): 7.17
viability, T/C (second compound 0.00316 µM, first compound 0.000949 µM): 140%
viability, T/C (second compound 0.00316 µM, first compound 0.003 µM): 111%
viability, T/C (second compound 0.00316 µM, first compound 0.00949 µM): 110%
viability, T/C (second compound 0.00316 µM, first compound 0.03 µM): 153%
viability, T/C (second compound 0.00316 µM, first compound 0.0949 µM): 95.6%
viability, T/C (second compound 0.00316 µM, first compound 0.3 µM): 43.8%
viability, T/C (second compound 0.01 µM, first compound 0.000949 µM): 123%
viability, T/C (second compound 0.01 µM, first compound 0.003 µM): 129%
viability, T/C (second compound 0.01 µM, first compound 0.00949 µM): 110%
viability, T/C (second compound 0.01 µM, first compound 0.03 µM): 123%
viability, T/C (second compound 0.01 µM, first compound 0.0949 µM): 91.2%
viability, T/C (second compound 0.01 µM, first compound 0.3 µM): 54%
viability, T/C (second compound 0.0316 µM, first compound 0.000949 µM): 117%
viability, T/C (second compound 0.0316 µM, first compound 0.003 µM): 114%
viability, T/C (second compound 0.0316 µM, first compound 0.00949 µM): 112%
viability, T/C (second compound 0.0316 µM, first compound 0.03 µM): 129%
viability, T/C (second compound 0.0316 µM, first compound 0.0949 µM): 74.5%
viability, T/C (second compound 0.0316 µM, first compound 0.3 µM): 48.4%
viability, T/C (second compound 0.1 µM, first compound 0.000949 µM): 122%
viability, T/C (second compound 0.1 µM, first compound 0.003 µM): 91.6%
viability, T/C (second compound 0.1 µM, first compound 0.00949 µM): 121%
viability, T/C (second compound 0.1 µM, first compound 0.03 µM): 138%
viability, T/C (second compound 0.1 µM, first compound 0.0949 µM): 55.3%
viability, T/C (second compound 0.1 µM, first compound 0.3 µM): 29.5%
viability, T/C (second compound 0.316 µM, first compound 0.000949 µM): 109%
viability, T/C (second compound 0.316 µM, first compound 0.003 µM): 115%
viability, T/C (second compound 0.316 µM, first compound 0.00949 µM): 113%
viability, T/C (second compound 0.316 µM, first compound 0.03 µM): 122%
viability, T/C (second compound 0.316 µM, first compound 0.0949 µM): 31.3%
viability, T/C (second compound 0.316 µM, first compound 0.3 µM): 7.46%
viability, T/C (second compound 1 µM, first compound 0.000949 µM): 97%
viability, T/C (second compound 1 µM, first compound 0.003 µM): 103%
viability, T/C (second compound 1 µM, first compound 0.00949 µM): 109%
viability, T/C (second compound 1 µM, first compound 0.03 µM): 127%
viability, T/C (second compound 1 µM, first compound 0.0949 µM): 25.8%
viability, T/C (second compound 1 µM, first compound 0.3 µM): 4.16%

O=C(c1ccc(F)c(F)c1Nc1ccc(I)cc1F)N1CC(O)([C@@H]2CCCCN2)C1 + CNC(C)C(=O)NC1CN(S(=O)(=O)c2cccc(S(=O)(=O)N3CCC4CCC(C(=O)NC(c5ccccc5)c5ccccc5)N4C(=O)C(NC(=O)C(C)NC)C3)c2)CCC2CCC(C(=O)NC(c3ccccc3)c3ccccc3)N2C1=O
pIC50 (second compound 0.00316 µM): < 6.00
pIC50 (second compound 0.01 µM): < 6.00
pIC50 (second compound 0.0316 µM): 6.01
pIC50 (second compound 0.1 µM): 6.19
pIC50 (second compound 0.316 µM): 6.26
pIC50 (second compound 1 µM): 6.29
viability, T/C [1]: 113%
viability, T/C [2]: 97%
viability, T/C [3]: 153%
viability, T/C [4]: 166%
viability, T/C [5]: 232%
viability, T/C [6]: 84.5%
viability, T/C [7]: 97.3%
viability, T/C [8]: 101%
viability, T/C [9]: 146%
viability, T/C [10]: 185%
viability, T/C [11]: 223%
viability, T/C [12]: 98.7%
viability, T/C [13]: 95.2%
viability, T/C [14]: 99.8%
viability, T/C [15]: 116%
viability, T/C [16]: 163%
viability, T/C [17]: 216%
viability, T/C [18]: 47.5%
viability, T/C [19]: 82.3%
viability, T/C [20]: 82.2%
viability, T/C [21]: 118%
viability, T/C [22]: 168%
viability, T/C [23]: 153%
viability, T/C [24]: 5.38%
viability, T/C [25]: 70.8%
viability, T/C [26]: 80.3%
viability, T/C [27]: 90.4%
viability, T/C [28]: 120%
viability, T/C [29]: 108%
viability, T/C [30]: 2.09%
viability, T/C [31]: 76.4%
viability, T/C [32]: 94.9%
viability, T/C [33]: 101%
viability, T/C [34]: 106%
viability, T/C [35]: 83.9%
viability, T/C [36]: 1.27%

— PubChem BioAssay AID1963437 (Molecular Pharmacology Branch, DTP, NCI, 2024)
